# Measurements taken from patent US20260295053A1, “COMPOUNDS FOR DEGRADATION AND INHIBITION OF KRAS (G12D) PROTEIN” (Shenzhen Ionova Life Science Co., Ltd., priority 2023, published 2026).
# Experiments:
# AsPC-1 cells = test: AsPC-1 cell proliferation assay (CellTiter Glo); assay type: cell-based; conditions: 6 days
# Procedure, shortened: (§1)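 Half-maximal degradation (DC50) and inhibition (IC50) concentrations are fitted from dose-response curves spanning […] to 1.5 nM final. KRAS G12D loss is measured by fluorescent antibody staining with β-actin reference after 24 h; growth is measured by ATP luminescence after a 6-day exposure.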
# KRAS (G12D) = target: T1, KRAS (G12D) (Homo sapiens, UniProt P01116, G12D); test: KRAS (G12D) cellular degradation assay in AsPC-1 cells; assay type: cell-based; conditions: 24 hours, antibody fluorescence (Odyssey CLX), DC50 half-maximal degradation concentration
# T1 construct: in-cell western with KRAS G12D antibody after 24 h
# T1 sequence (P01116 1-188 isoform P01116-2 G12D): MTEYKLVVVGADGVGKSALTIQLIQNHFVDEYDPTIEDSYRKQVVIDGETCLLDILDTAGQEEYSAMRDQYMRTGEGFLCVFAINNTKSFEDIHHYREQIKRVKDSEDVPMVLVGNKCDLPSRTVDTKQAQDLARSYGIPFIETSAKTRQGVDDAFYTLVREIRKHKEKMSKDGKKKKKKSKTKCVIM
# Procedure, shortened: as §1
SMILES,DC50 (KRAS (G12D)),IC50 (AsPC-1 cells),"IC50 (AsPC-1 cells; Homo sapiens, ASPC1, 144 h)"
"CCn1nccc1-c1ccc([C@@H](NC(=O)[C@@H]2C[C@@H](O)CN2C(=O)[C@H](C(C)C)n2cc(-c3ccc(COc4c(-c5c(C)c(F)cc6[nH]ncc56)c(C5CC5)cc5c(N6C[C@@H]7C[C@H]6CN7)nc(O[C@H]6C[C@H](OC)C6)nc45)cc3)nn2)[C@H](C)O)cc1 [Example 109, (2S,4R)-1-((2S)-2-(4-(4-(((4-((1S,4S)-2,5-diazabicyclo[2.2.1]heptan-2-yl)-6-cyclopropyl-7-(6-fluoro-5-methyl-1H-indazol-4-yl)-2-((1r,3S)-3-methoxycyclobutoxy)quinazolin-8-yl)oxy)methyl)phenyl)-1H-1,2,3-triazol-1-yl)-3-methylbutanoyl)-N-((1R,2S)-1-(4-(1-ethyl-1H-pyrazol-5-yl)phenyl)-2-hydroxypropyl)-4-hydroxypyrrolidine-2-carboxamide]",< 10 nM,–,< 10 nM
"CCn1nccc1-c1ccc([C@H](CO)NC(=O)[C@@H]2C[C@@H](O)CN2C(=O)[C@H](C(C)C)n2cc(-c3ccc(COc4c(-c5c(C)c(F)cc6[nH]ncc56)c(C5CC5)cc5c(N(C)[C@@H]6CCNC6)nc(O[C@H]6C[C@H](OC)C6)nc45)cc3)nn2)c2c1CC2 [Example 204, (2S,4R)-1-((2S)-2-(4-(4-(((6-cyclopropyl-7-(6-fluoro-5-methyl-1H-indazol-4-yl)-2-((1r,3R)-3-methoxycyclobutoxy)-4-(methyl((R)-pyrrolidin-3-yl)amino)quinazolin-8-yl)oxy)methyl)phenyl)-1H-1,2,3-triazol-1-yl)-3-methylbutanoyl)-N—((R)-1-(5-(1-ethyl-1H-pyrazol-5-yl)bicyclo[4.2.0]octa-1(6),2,4-trien-2-yl)-2-hydroxyethyl)-4-hydroxypyrrolidine-2-carboxamide]",< 10 nM,–,< 10 nM
"CO[C@@H](C)COc1nc(N(C)[C@H]2CCNC2)c2cc(C3CCC3)c(-c3c(C)c(F)cc4[nH]ncc34)c(OCc3ccc(-c4cn([C@H](C(=O)N5C[C@H](O)C[C@H]5C(=O)N[C@H](c5ccc(-c6scnc6C)cc5)C(C)O)C(C)C)nn4)cc3)c2n1 (stereo in doubt) [Example 142, (2S,4R)-1-((2S)-2-(4-(4-(((6-cyclobutyl-7-(6-fluoro-5-methyl-1H-indazol-4-yl)-2-((S)-2-methoxypropoxy)-4-(methyl((S)-pyrrolidin-3-yl)amino)quinazolin-8-yl)oxy)methyl)phenyl)-1H-1,2,3-triazol-1-yl)-3-methylbutanoyl)-4-hydroxy-N-((1R,2R)-2-hydroxy-1-(4-(4-methylthiazol-5-yl)phenyl)propyl)pyrrolidine-2-carboxamide]",< 10 nM,–,< 10 nM
"Cc1ncsc1-c1ccc([C@@H](NC(=O)[C@@H]2C[C@@H](O)CN2C(=O)[C@H](C(C)C)n2cc(-c3ccc(COc4c(-c5c(C)c(F)cc6[nH]ncc56)c(C5CC5)cc5c(N6C[C@@H]7C[C@H]6CN7)nc(OC6CC7(COC7)C6)nc45)cc3)nn2)[C@@H](C)O)cc1 [Example 150, (2S,4R)-1-((2S)-2-(4-(4-(((2-((2-oxaspiro[3.3]heptan-6-yl)oxy)-4-((1S,4S)-2,5-diazabicyclo[2.2.1]heptan-2-yl)-6-cyclopropyl-7-(6-fluoro-5-methyl-1H-indazol-4-yl)quinazolin-8-yl)oxy)methyl)phenyl)-1H-1,2,3-triazol-1-yl)-3-methylbutanoyl)-4-hydroxy-N-((1R,2R)-2-hydroxy-1-(4-(4-methylthiazol-5-yl)phenyl)propyl)pyrrolidine-2-carboxamide]",< 10 nM,–,< 10 nM
"CO[C@@H](C)COc1nc(N2C[C@@H]3C[C@H]2CN3)c2cc(C3CC3)c(-c3c(C)c(F)cc4[nH]ncc34)c(OCc3ccc(-c4cn([C@H](C(=O)N5C[C@H](O)C[C@H]5C(=O)N[C@H](C#Cc5cc6scnc6s5)CO)C(C)C)nn4)cc3)c2n1 [Example 67, (2S,4R)-1-((2S)-2-(4-(4-(((4-((1S,4S)-2,5-diazabicyclo[2.2.1]heptan-2-yl)-6-cyclopropyl-7-(6-fluoro-5-methyl-1H-indazol-4-yl)-2-((S)-2-methoxypropoxy)quinazolin-8-yl)oxy)methyl)phenyl)-1H-1,2,3-triazol-1-yl)-3-methylbutanoyl)-4-hydroxy-N—((R)-1-hydroxy-4-(thieno[2,3-d]thiazol-5-yl)but-3-yn-2-yl)pyrrolidine-2-carboxamide]",10 to 100 nM,–,10 to 100 nM
"CCn1nccc1-c1ccc([C@@H](NC(=O)[C@@H]2C[C@@H](O)CN2C(=O)[C@H](C(C)C)n2cc(-c3ccc(COc4c(-c5c(C)c(F)cc6[nH]ncc56)c(C5CC5)cc5c(N6C[C@@H]7C[C@H]6CN7)nc(O[C@H]6C[C@H](OC)C6)nc45)cc3)nn2)[C@H](C)O)c2c1CC2 [Example 147, (2S,4R)-1-((2S)-2-(4-(4-(((4-((1S,4S)-2,5-diazabicyclo[2.2.1]heptan-2-yl)-6-cyclopropyl-7-(6-fluoro-5-methyl-1H-indazol-4-yl)-2-((1r,3S)-3-methoxycyclobutoxy)quinazolin-8-yl)oxy)methyl)phenyl)-1H-1,2,3-triazol-1-yl)-3-methylbutanoyl)-N-((1R,2S)-1-(5-(1-ethyl-1H-pyrazol-5-yl)bicyclo[4.2.0]octa-1(6),2,4-trien-2-yl)-2-hydroxypropyl)-4-hydroxypyrrolidine-2-carboxamide]",< 10 nM,–,< 10 nM
"CCn1nccc1-c1ccc([C@@H](NC(=O)[C@@H]2C[C@@H](O)CN2C(=O)[C@H](C(C)C)n2cc(-c3ccc(COc4c(-c5c(C)c(F)cc6[nH]ncc56)c(C5CC5)cc5c(N6C[C@@H]7C[C@H]6CN7)nc(O[C@H]6C[C@H](OC)C6)nc45)cc3)nn2)[C@H](C)O)cc1F [Example 195, (2S,4R)-1-((2S)-2-(4-(4-(((4-((1S,4S)-2,5-diazabicyclo[2.2.1]heptan-2-yl)-6-cyclopropyl-7-(6-fluoro-5-methyl-1H-indazol-4-yl)-2-((1r,3S)-3-methoxycyclobutoxy)quinazolin-8-yl)oxy)methyl)phenyl)-1H-1,2,3-triazol-1-yl)-3-methylbutanoyl)-N-((1R,2S)-1-(4-(1-ethyl-1H-pyrazol-5-yl)-3-fluorophenyl)-2-hydroxypropyl)-4-hydroxypyrrolidine-2-carboxamide]",< 10 nM,–,< 10 nM

# The next lines start with results.
DC50 (KRAS (G12D)),IC50 (AsPC-1 cells),SMILES,"IC50 (AsPC-1 cells; Homo sapiens, ASPC1, 144 h)"
< 10 nM,< 10 nM,"CO[C@@H](C)COc1nc(N2C[C@H]3C[C@@H]2CN3)c2cc(C3CC3)c(-c3c(C)c(F)cc4[nH]ncc34)c(OCc3ccc(-c4cn([C@H](C(=O)N5C[C@H](O)C[C@H]5C(=O)N[C@@H](CO)c5ccc(-c6scnc6C)cc5)C(C)C)nn4)cc3)c2n1 (single isomer, unassigned) [Example 2A]",–
> 1000 nM,> 1000 nM,"CCn1nccc1-c1ccc([C@H](CO)NC(=O)[C@@H]2C[C@@H](O)CN2C(=O)[C@H](C(C)C)n2cc(-c3ccc(COc4c(-c5c(C)c(F)cc6[nH]ncc56)c(C5CC5)cc5c(N6C[C@H]7C[C@@H]6CN7)nc(OC[C@H](C)OC)nc45)cc3)nn2)cc1 (single isomer, unassigned) [Example 1B]",–
10 to 100 nM,–,"CCn1nccc1-c1ccc(CNC(=O)[C@@H]2C[C@@H](O)CN2C(=O)[C@H](C(C)C)n2cc(-c3ccc(COc4c(-c5c(C)c(F)cc6[nH]ncc56)c(C5CC5)cc5c(N6C[C@H]7C[C@@H]6CN7)nc(OC[C@H](C)OC)nc45)cc3)nn2)cc1 (single isomer, unassigned) [Example 7A]",10 to 100 nM
